Laboratory results as given in US20120308663A1, “LIPID NANOCAPSULES, METHOD FOR PREPARING SAME AND USE THEREOF AS A DRUG” (priority 2009, published 2012).

Columns and labels:
rats = conditions: in rats; cited from earlier work
HT-29 cells = type: cell-based
Procedure: The IC50 was calculated as being the concentration of SN38-LNCs, of SN38 or unloaded LNCs causing 50% cell death.

mice = conditions: in mice, intravenously; cited from earlier work

For CCOCCOCCO [Transcutol®HP, diethyleneglycol monoethyl ether], the DL50 (rats) is listed as > 5 g/kg.

For CCc1c2c(nc3ccc(O)cc13)-c1cc3c(c(=O)n1C2)COC(=O)[C@]3(O)CC [free SN38, 7-ethyl-10-hydroxycamptothecin], the “Cytotoxicity relative to CPT11 (times greater)” value (HT-29 cells) was “approximately 250 times”.

For “polyethyleneglycol-660 2-hydroxystearate [Solutol® HS 15]”, the DL50 (mice) is given as > 3.16 g/kg.
